From patent US20110117195A1, “METHOD FOR IMPROVING MYOCARDIAL INFARCTION BY INTRAMYOCARDIAL OR TRANSENDOCARDIAL INJECTION OF PEPTIDE NANOFIBERS” (National Cheng Kung University, priority 2009, published 2011)

Assays:
Format in all cases: in vivo
[1] = tested on: Lanyu mini-pig models of experimental myocardial infarction (MI); assay: Cardiac catheterization (hemodynamic parameters) after coronary artery ligation in mini-pigs
Description: (§1) Sexually matured Lanyu mini-pigs (about 5 months old, body weight: 21.8±3.1 kg), were divided into 3 groups: the first group is sham operation, suturing was performed without ligation (n=4); the second group is mid-left coronary artery ligation (for simulating myocardial infarction, MI) immediately followed with injection of normal saline solution (MI+NS, n=4); and the third group is mid-left coronary artery ligation immediately followed with injection of 1% peptide nanofibers solution (MI+NFs, n=5) in the entire infarcted area with a total of 2 ml NFs divided by 40 delivery sites (50 ul for each site), wherein the sequence of peptide NFs is AcN-RARADADARARADADA-NH2. Cardiac functions were assessed by echocardiography immediately after MI and together with cardiac catheterization 4 weeks later.
(§2) In the preferred embodiment of the present invention, the peptide nanofibers solution contains peptide nanofibers which can form a biologically compatible peptide hydrogel, wherein the biologically compatible peptide hydrogel is prepared by: dissolving powders of the self-assembling peptide nanofibers in a buffer solution, such as pH 7.4 phosphate buffered saline (PBS) solution; and mixing the powders of the self-assembling peptide nanofibers with the buffer solution by sonication (100 W, 10 mins), so as to obtain a hydrogel solution of the biologically compatible peptide hydrogel (i.e. the peptide nanofibers solution), wherein the percentage of the self-assembling peptide nanofibers in the solution can be 0.1-10% by weight of the solution, preferably 0.5-5% by weight, and more preferably 1.0% by weight; and wherein the volume of the solution of the biologically compatible peptide hydrogel is preferably 0.1-10 ml, and more preferably 2 ml. In the embodiment, the percentage of the self-assembling peptide nanofibers in the solution is 1.0% by weight, and the volume of the solution of the biologically compatible peptide hydrogel is 2 ml. Meanwhile, the buffer solution (PBS) is added with monovalent metal cation compound of a concentration sufficient to promote the self-assembly of the self-assembling peptide nanofibers, wherein the monovalent metal cation is selected from the group consisting of: lithium (Li^+), sodium (Na^+) and potassium (K^+). In the embodiment, the monovalent metal cation compound is sodium […].
(§3) Besides, the pharmaceutical composition of the second and third groups is injected to a plurality of delivery sites in the entire infarcted area of myocardium tissue, respectively, wherein the number of the delivery sites is preferably ranged between 10 and 100, and more preferably 40, without limitation thereto. The plurality of delivery sites in the entire infarcted area is advantageous to increase the distribution density to support materials (e.g. peptide nanofibers). In addition, the infarcted area of myocardium tissue is preferably a mid-left portion of myocardium tissue of an injured heart with myocardial infarction, but also can be any infarcted area of the heart. The self-assembling peptide nanofibers (AcN-RARADADARARADADA-NH2) are 16 amino acids in length, but also can be 8-200 amino acids in length, and preferably 12-32 amino acids in length. […]

[2] = tested on: Lanyu mini-pig models of experimental myocardial infarction (MI); assay: Echocardiography after coronary artery ligation in mini-pigs
Description: as §1, §2, §3

[3] = tested on: Lanyu mini-pig models of experimental myocardial infarction (MI); assay: Immunohistological index (myocardial capillary density) after coronary artery ligation in mini-pigs
Description: as §1, with “later. […]” for “later.”

[4] = Table 1, 28 days after infarction, 2 ml intramyocardial in 40 sites, in mmHg/s (unit assumed)
[5] = Table 1, 28 days after infarction, 2 ml intramyocardial in 40 sites
[6] = one month after MI, P<0.01 vs MI+NS

Question: Which “Emax (maximal chamber elasticity)” value ([1]; Table 1, 28 days after infarction, 2 ml intramyocardial in 40 sites, in mmHg/mL (unit assumed)) does the source give for “AcN-RARADADARARADADA-NH2 (Ac-RARADADARARADADA-NH2) [MI + NFs, self-assembling peptide nanofibers forming a hydrogel]” here?
Answer: 2.80 ± 1.43

Question: What about the “+dP/dt Max” value [1, 4] of the same substance?
Answer: 1458 ± 154

Question: And the “−dP/dt Max” value [1, 4]?
Answer: −1850 ± 94

Question: What about the “diastolic function and ventricular remodeling” value ([1]; one month after MI, end-diastolic and end-systolic volumes, −dP/dt Max, Emax) of the same substance?
Answer: significantly improved

Question: And the “systolic function (ejection fraction and +dP/dt Max) compared to the (MI+NS) group” value ([1]; one month after MI, no significant difference)?
Answer: only modest improvement

Question: What about the “E.F. (ejection fraction)” value [2, 5] of the same substance?
Answer: 47 ± 8

Question: What about the IVS-D (thickness of inter-ventricular septum, diastolic) [2, 5] of the same substance?
Answer: 0.6 ± 0.12 cm

Question: And the IVS-S (thickness of inter-ventricular septum, systolic) [2, 5]?
Answer: 0.7 ± 0.13 cm

Question: And the thickness of inter-ventricular septum on diastolic (IVS-D) phase [2, 6]?
Answer: 0.6 ± 0.12 cm

Question: And the thickness of inter-ventricular septum on systolic (IVS-S) phase [2, 6]?
Answer: 0.7 ± 0.13 cm

Question: And the “M.C.D. (myocardial capillary density)” value [3, 5]?
Answer: 286 ± 179 number/mm^2

Question: And the “myocardial capillary density (M.C.D.)” value ([3]; one month after MI, in words)?
Answer: significantly increased
